Assay [1] concerns fracture callus of fractured femur. The experiment in a line: Femur fracture model, microCT of the fracture callus (BV/TV, TbTh, BV, TbSp). Format: in vivo, Swiss Webster mice. Conditions: local injections.
Assay [2] concerns pre-osteoblastic cell line MC3T3-E1. As to the kind of experiment: Alkaline phosphatase (ALP) activity of pre-osteoblastic cells after 7 days exposure. The note with it: 0.1-5 nM in culture media for 7 days, vs DMSO alone. Format: cell-based, mouse.
A further assay deals with healed fractured femur. The experiment in a line: Postmortem four-point bend of the healed femur (peak/max load, stiffness, work to fracture). The note with it: for Bone strength (Max Load, Work to Fracture): n=5. Format: in vivo, Swiss Webster mice. How it is done:
The term “Peak Load” means a postmortem 4 point bend of the healed femur. Peak load represents the maximum force the healed femur withstood before it refractured.
The targeted conjugates were synthesized using standard Fmoc solid-phase peptide synthesis, as described above. To ensure the conjugates' activity, mouse pre-osteoblast ([…]) cells were treated with the targeted and untargeted compounds for three days at concentrations from 1 pM to 100 nM. After three days of treatment, the cells were harvested, and the RNA was purified from the cells. Expression levels of ALP, RUNx2 (transcription factor for osteoblast differentiation), osterix (OSX), osteopontin (OPN), collagen 1A (Col-1A), OPG, RANKL, sclerostin gene (SOST), and OC were quantified via quantitative reverse transcription polymerase chain reaction (RT-qPCR). Once the biological activity of the conjugates was confirmed, they were tested in vivo in a fracture model. Aseptic surgical techniques were used to place a 23-gage needle as in intramedullary nail in the femur of anesthetized, 12-week-old Swiss Webster mice for internal fixation before fracture. Femur fractures were induced using a drop weight fracture device from RISystem. The mice received buprenorphine for three days post fracture. […] Fracture healing was assessed using microCT (Scanco Medical Ag). Morphometric parameters were quantified in the 100 widest slices of the fracture callus. Trabecular thickness (TbTh), trabecular spacing (TbSp), total volume (TV), and volume of calcified callus (BV) were calculated. Fractured femurs were tested for strength in a four-point bend to failure using an Electro Force TestBench (TA Instruments). Lower supports were 10 mm apart on the anterior face of the femur in contact with the proximal and distal diaphysis. Upper supports were 4 mm apart and spanned the entire fracture callus on the diaphysis. Force was applied from the posterior face of the femur with a displacement rate of 0.3 mm/sec. Peak load, yield load, stiffness, displacement post yield, work to fracture, and deformation data were generated. Statistical analysis was performed using a two-way analysis of variance (ANOVA) and a Tukey post-hoc analysis with significance reported at the 95% confidence level. All animal experiments were performed in accordance with protocols approved by Purdue University's Institutional Animal Care and Use Committee (IACUC).
Referring to FIGS. 26a, 26b, and 26c, in vivo fracture healing efficacy of VIP_mp4_(D)E10 conjugate on Swiss Webster fracture-bearing mice (n=5) after 3 weeks was reflected as BV/TV, Max Load, and Work to Fracture respectively. […]

Assay [3] has as its system fracture callus of fractured femur. The experiment in a line: Femur fracture model, microCT of the fracture callus (BV/TV, TbTh, BV, TbSp). It is filed as in vivo, Swiss Webster mice. The text has this: All in vivo data included herein are from swiss Webster mice. All mice received an osteotomy on their right femur and received subcutaneous drug administration daily for either 2, 3 or 4 weeks, as indicated, for each compound. 1× concentration represents 1 nmol/day, 10× represents 10 nmol/day, 100× represents 100 nmol/day most studies have an n of 5.
The term “BV/TV” means the bone volume divided by total volume of the 100 thickest micro CT slices of the fracture callus.
The term “TbTh” means the trabecular thickness of the 100 thickest micro CT slices of the fracture callus.
The term “[…]” means the overall bone volume of the 100 thickest micro CT slices of the fracture callus.
The term “TbSp” means the spacing between the trabecula in the 100 thickest micro CT slices of the fracture callus.
The targeted conjugates were synthesized using standard Fmoc solid-phase peptide synthesis, as described above. To ensure the conjugates' activity, mouse pre-osteoblast ([…]) cells were treated with the targeted and untargeted compounds for three days at concentrations from 1 pM to 100 nM. After three days of treatment, the cells were harvested, and the RNA was purified from the cells. Expression levels of ALP, RUNx2 (transcription factor for osteoblast differentiation), osterix (OSX), osteopontin (OPN), collagen 1A (Col-1A), OPG, RANKL, sclerostin gene (SOST), and OC were quantified via quantitative reverse transcription polymerase chain reaction (RT-qPCR). Once the biological activity of the conjugates was confirmed, they were tested in vivo in a fracture model. Aseptic surgical techniques were used to place a 23-gage needle as in intramedullary nail in the femur of anesthetized, 12-week-old Swiss Webster mice for internal fixation before fracture. Femur fractures were induced using a drop weight fracture device from RISystem. The mice received buprenorphine for three days post fracture. The mice were dosed subcutaneously each day for three weeks or 17 days. Fracture healing was assessed using microCT (Scanco Medical Ag). Morphometric parameters were quantified in the 100 widest slices of the fracture callus. Trabecular thickness (TbTh), trabecular spacing (TbSp), total volume (TV), and volume of calcified callus (BV) were calculated. Fractured femurs were tested for strength in a four-point bend to failure using an Electro Force TestBench (TA Instruments). Lower supports were 10 mm apart on the anterior face of the femur in contact with the proximal and distal diaphysis. Upper supports were 4 mm apart and spanned the entire fracture callus on the diaphysis. Force was applied from the posterior face of the femur with a displacement rate of 0.3 mm/sec. Peak load, yield load, stiffness, displacement post yield, work to fracture, and deformation data were generated. Statistical analysis was performed using a two-way analysis of variance (ANOVA) and a Tukey post-hoc analysis with significance reported at the 95% confidence level. All animal experiments were performed in accordance with protocols approved by Purdue University's Institutional Animal Care and Use Committee (IACUC).

A further assay addresses T1, VPAC-1 (Homo sapiens, UniProt P32241).
T1 sequence (P32241 31-457): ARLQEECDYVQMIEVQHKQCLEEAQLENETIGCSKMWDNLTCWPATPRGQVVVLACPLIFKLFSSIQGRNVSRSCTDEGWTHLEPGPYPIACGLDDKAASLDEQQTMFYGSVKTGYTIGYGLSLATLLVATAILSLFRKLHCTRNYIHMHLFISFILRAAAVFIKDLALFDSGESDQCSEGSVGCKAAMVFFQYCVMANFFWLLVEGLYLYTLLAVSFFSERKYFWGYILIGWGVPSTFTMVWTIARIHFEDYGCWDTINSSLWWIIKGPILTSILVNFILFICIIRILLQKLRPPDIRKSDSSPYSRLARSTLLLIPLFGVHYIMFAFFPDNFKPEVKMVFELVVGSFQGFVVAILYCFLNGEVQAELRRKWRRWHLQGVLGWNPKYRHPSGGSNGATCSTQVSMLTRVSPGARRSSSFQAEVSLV
Conditions: VIP compared with PACAP; cited from earlier work.

The target in another assay is T2, VPAC-2 (Homo sapiens, UniProt P41587).
T2 sequence (P41587 24-438): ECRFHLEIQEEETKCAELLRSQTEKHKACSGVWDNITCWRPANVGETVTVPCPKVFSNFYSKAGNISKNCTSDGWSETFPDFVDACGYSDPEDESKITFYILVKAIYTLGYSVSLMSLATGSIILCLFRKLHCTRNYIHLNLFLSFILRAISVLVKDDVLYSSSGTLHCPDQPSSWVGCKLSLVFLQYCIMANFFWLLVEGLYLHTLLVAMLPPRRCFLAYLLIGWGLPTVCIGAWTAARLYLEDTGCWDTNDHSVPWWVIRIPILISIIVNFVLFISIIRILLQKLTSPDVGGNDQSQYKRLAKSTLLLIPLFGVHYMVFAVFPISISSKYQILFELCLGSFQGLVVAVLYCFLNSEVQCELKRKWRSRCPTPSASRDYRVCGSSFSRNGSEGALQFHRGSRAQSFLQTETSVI
The note with it: VIP compared with PACAP; cited from earlier work.

Setting [4] is: 2 weeks, daily sc, 1 to 100 nmol/day.
Where [5] appears, read: 3 weeks, 0.1, 1, 10 nmol per day sc, n=5.
[6] abbreviates: 4 weeks, daily sc, various concentrations from 1 to 100 nmol/day.

Primed or numbered codes have the meaning given here. Where no end group is shown, it is not given here. [ ]: non-standard residue; d: D form. PEG2′ = PEG2 spacer

Take `Cc1ncc(CO)c(C)c1O` [DOP, 4-deoxypyridoxine]: the Fracture healing result in assay [1] is on record as “acceleration of fracture healing”.

For the molecule `CC(C)Oc1ccc(-c2nc(-c3cccc4c3CC[C@@H]4NCCO)no2)cc1C#N` [ozanimod, Ozanimod], the Fracture healing entry in assay [1] was “acceleration of fracture healing”. Further, in assay [2], the “Alkaline phosphatase (ALP) activity” value is listed as “boost”.

Take “Amylin(1-8)-D10: amino acid 1-8 of native amylin attached to 4 peg2 spacers then ten aspartic acid (KCNTATCA[PEG2′][PEG2′][PEG2′][PEG2′]DDDDDDDDDD; not fully specified (bridges); ends and bridges not checked; UniProt P10997 34-41, looked up, fragment)”: in the assay on healed fractured femur (3 weeks, 1, 10, 100 nmol per day sc), the “Bone strength (Max Load, Work to Fracture)” value was “improves bone strength”. In assay [3] (3 weeks, 1, 10, 100 nmol per day sc, n=5), the “Bone density (BV/TV) at the fracture calluses” value is on record as “raises bone density”.

On to “BFP-D10: bone forming peptide conjugated with 10 aspartate acids, SEQ ID NO: 1 DDDDDDDDDDGQGFSYPYKAVFSTQ (BFP D10)”, for which, in the assay with healed fractured femur (100 nmol/day (100×), after 2 weeks), the “Peak load of fractured femurs, ranking as compared to PBS” value is given as “obtained the maximum peak load”. Besides, in assay [3] (setting [4]), the BV/TV entry is recorded as “dose dependent manner” and the TbSp entry is “dose dependent manner”.

“CBM D10: collagen binding motif of osteopontin conjugated with 10 aspartate acids”: the BV/TV result in assay [3] (3 weeks, 0.1, 1 and 10 nmol/day) is “dose dependent manner”.

“CGRP (D)E10: full natural 37 amino acid CGRP, cyclized 2-7, C-terminal 4 minipeg spacers and ten D glutamic acids”: the “Bone strength (Max Load, Work to Fracture)” value in the assay with healed fractured femur (3 weeks, 0.1, 1, 10 nmol per day sc) was “raises bone strength”. In assay [3] (setting [5]), the “Bone density (BV/TV) at the fracture calluses” value was “raises bone density” and the “Bone volume (BV)” value is reported as “stimulates more bone to be generated”.

As for “Ghrelin-D10: Ghrelin D10 with Serine (Ser)-3 replaced with diaminopropinoic acid”, the BV/TV entry in assay [3] (setting [6]) is “dose dependent manner”.

As to “MGF D10: Mechano-growth factor conjugated with 10 aspartate acids, SEQ ID NO: 11 DDDDDDDDDDYQPPSTNKNTKSQRRKGSTFEEHK (Mechano-growth factor (MGF) D10, an IGF-I fragment)”, the BV/TV entry in assay [3] (setting [6]) is on record as “dose dependent manner”.

Take “OGP-D10: osteogenic growth peptide conjugated with 10 aspartate acids, SEQ ID NO: 2 DDDDDDDDDDALKRQGRTLYGFGG (OGP D10)”: in assay [3] (setting [4]), the BV/TV result is “dose dependent manner”, the TbSp entry is “dose dependent manner” and the TbTh result was “dose dependent manner”.

Take “P4 D10: P4 (knuckle epitope fragment of hBMP-2) conjugated with 10 aspartate acids (HKIPKASSVPTELSAISTLYLDDDDDDDDDD; P4 D10-a BMP2 fragment)”: the “Bone volume (BV)” value in assay [3] (4 weeks, 1 nmol/day) is listed as “healing was reflected”. Further, the BV/TV entry in assay [3] (setting [6]) is “dose dependent manner”.

For the molecule “Pituitary Adenylyl Cyclase Activating Peptide [PACAP]”, in the assay with VPAC-1, the “Affinity for VPAC-1” value is listed as “equal affinity”. Also, the “Affinity for VPAC-2” value with VPAC-2 is recorded as “equal affinity”.

Turning to “Preptin-D10: Preptin conjugated with 10 aspartate acids, SEQ ID NO: 3 (HDVSTSQAVLPDDFPRYDDDDDDDDDD; Preptin D10)”, the “Bone volume (BV)” value in assay [3] (2 weeks, daily sc, 1, 10, 100 nmol/day) is recorded as “dose dependent manner”. Moreover, in assay [3] (setting [4]), the BV/TV entry is “dose dependent manner” and the TbTh result is listed as “dose dependent manner”.

Consider “pBMP9 D10: 23-residue peptide from the knuckle epitope of human BMP-9 targeted with D10 (CGGKVGKACCVPTKLSPISVLYK[miniPEG][miniPEG][miniPEG][miniPEG]DDDDDDDDDD; cysteine pairing not given here)”, for which the “Bone volume (BV)” value in assay [3] (4 weeks, daily sc, 1, 10, 100 nmol/day) was “dose dependent manner”. Also, the BV/TV entry in assay [3] (setting [6]) is “dose dependent manner”.

For the molecule “substance P D10: substance P with 4 mini PEG linker and conjugated with 10 aspartate acids (DDDDDDDDDDRPKPQQFFGLM; 4 mini PEG linker; substance P 4 mini PEG D10 with; (10)..(11) 4 mini PEG linker)”, the “Peak load the healed femur can withstand” value with healed fractured femur (10× (10 nmol/day), 4 weeks) is recorded as 30-35 Newtons. For the same molecule, the BV/TV entry in assay [3] (setting [6]) is “dose dependent manner”.

Source of the values: patent US20210206820A1 (Purdue Research Foundation, priority 2018, published 2021).
